# Measured values from article PMC10818380, “Triphenylphosphonium Analogs of Short Peptide Related to Bactenecin 7 and Oncocin 112 as Antimicrobial Agents” (Pharmaceutics, 2024).
# Like-named read-outs stand apart in the source and are kept apart here. Peptide text beside a SMILES is read from it. * marks the point of attachment. X3 = O=C(CCCCCCCCCC[P+](c1ccccc1)(c1ccccc1)c1ccccc1)*
# Legend:
# [1] = tested on: B. subtilis 168; assay: microbe, parasite or virus in culture; format: cell-based
# Description: (§1) The MIC values for Bac(1–10), Bac(1–10, R/Y), Bac(1–10, R/Y)-Cn-TPP, TPP-C10-Bac(1–10, R/Y), and Onc112 were determined via LB broth microdilution, as recommended by CLSI in the Methods for Dilution Antimicrobial Susceptibility Tests for Bacteria that Grow Aerobically, Approved Standard, 9th ed., CLSI document M07-A9, using in-house-prepared panels. The compounds were diluted in a 96-well microtiter plate to final concentrations ranging from 0.1 to 100 µM in a 200 µL aliquot of the bacterial suspension, followed by incubation at 37 °C for 18 h. The cell concentration was estimated according to the absorbance (A600). The measurements were performed with a VICTOR X5 Multilabel Plate Reader (PerkinElmer, Waltham, MA, USA). The following bacterial strains were used: E. coli BW25113, E. coli JW0368 ΔsbmA, B. subtilis 168, and B. subtilis CFR [39].
# [2] = tested on: B. subtilis CFR; assay: microbe, parasite or virus in culture; format: cell-based; settings: 18 h
# Description: as §1
# [3] = tested on: E. coli BW25113; assay: microbe, parasite or virus in culture; format: cell-based; settings: E. coli BW25113, 37 °C, 18 h
# Description: as §1
# [4] = tested on: E. coli JW0368 ΔsbmA; assay: microbe, parasite or virus in culture; format: cell-based; settings: for MIC: 18 h; for comparison of MIC values, E. coli ΔsbmA versus wild type: MIC values of Table 1
# Description: as §1
# [5] = tested on: HEK293T; assay: cells; format: cell-based, human; settings: 72 h
# Description: (§2) The cytotoxicity of the substances under study was tested using the MTT (3-(4,5-dimethylthiazol-2-yl)-2,5-diphenyltetrazolium bromide) assay with some modifications. The detailed procedure for the MTT assay is given in the Supplementary Materials (Section S5).
# (§3) Two thousand five hundred cells per well for the MCF7, HEK293T, and A549 cell lines or 4000 cells per well for the VA13 cell line were plated in 135 µL of DMEM-F12 media with 10% FBS (both Gibco, Waltham, MA, USA) in a 96-well plate and were incubated in a 5% CO2 incubator for the first 16 h, without treatment. Then 15 µL of media-DMSO solutions of the tested substances were added to the cells (the final DMSO concentrations in the media were 1% or less), and the cells were treated for 72 h with 25 nM–50 µM (eight dilutions) of the tested substances (triplicate each). Serial dilutions of DMSO and doxorubicin were used as controls. The MTT reagent (Paneco LLC, Moscow, Russia) was then added to the cells at a final concentration of 0.5 g/L (10× stock solution in PBS was used) and incubated for 2.5 h at 37 °C in the incubator under an atmosphere of 5%
# (§4) CO2. The MTT solution was then discarded, and 140 µL of DMSO (PharmaMed LLC, Krasnodar, Russia) was added. The plates were swayed on a shaker (60 rpm) to dissolve the formazan. The absorbance was measured using the VICTOR X5 Multilabel Plate Reader (PerkinElmer, Wa l th a m, MA, USA) at a wavelength of 565 nm (in order to measure formazan concentration). The resu l ts were used to construct a dose-response graph and to estimate IC50 values.
# (§5) Figure S11.The dependencies of viability of cells after treatment by tested compounds.
# (§6) (1 picture or pasted object on this page, not shown here)
# [6] = tested on: MCF7; assay: cells; format: cell-based, human
# Description: as §2, §3, §4, §5, §6
# [7] = tested on: VA13; assay: cells; format: cell-based, human
# Description: as §2, §3, §4, §5, §6
# [8] = tested on: A549; assay: cells
# Description: as §2, §3, §4, §5, §6
# [9] = tested on: E. coli JW5503 (∆tolC) (KanS) pDualrep2; assay: pDualrep2 double-reporter agar plate test; format: cell-based; settings: 1 µL of 10 mM solution on agar plate
# Description: The “pDualrep2” system was used to evaluate the mechanism of the antimicrobial action of the synthesized compounds. This system is based on the hypersensitive strain E. coli JW5503 (∆tolC) (KanS) transformed with the “pDualrep2” plasmid, which allows one to sort out suppressors of protein synthesis or SOS response inducers. Briefly, 1 µL of 10 mM water solutions of Bac(1–10), Bac(1–10, R/Y), Bac(1–10, R/Y)-Cn-TPP, TPP-C10-Bac(1–10, R/Y), and Onc112 were applied onto the agar plate that already contained a layer of the reporter strain E. coli JW5503 (∆tolC) (KanS) pDualrep2, and then the plate was incubated overnight at 37 °C. The agar plate was scanned using the ChemiDoc^TM Imaging System (Bio-Rad Laboratories, Hercules, CA, USA), containing two channels, “Cy3-blot” (553/574 nm; green pseudocolor) for Turbo Red Fluorescent Protein (TurboRFP) detection and “Cy5-blot” (588/633 nm; red pseudocolor) for Katushka2S fluorescence. […] Levofloxacin (LEV; 50 μg/mL, 1 μL) and erythromycin (ERY; 5 mg/mL, 1 μL) were utilized as positive controls for DNA and protein synthesis inhibitors, respectively.
# [10] = tested on: 70S E. coli ribosome; assay: Competition-binding assay, displacement of BODIPY-Bac(1–10), fluorescence anisotropy; settings: CI (α = 0.05), read-out: apparent dissociation constant (KD)
# Description: 70S ribosomes were isolated from E. coli MRE600 cells according to a published procedure. The binding of BODIPY-Bac(1–10) to 70S E. coli ribosomes was performed according to the following procedure. BODIPY-Bac(1–10) (16 nM) was incubated with ribosomes (from 0.5 nM to 2000 nM) for 2 h at 26 °C in a buffer containing 20 mM of HEPES-KOH (pH 7.5), 50 mM of NH4Cl, 10 mM of Mg(CH3COO)2, 4 mM of β-mercaptoethanol, and 0.05% Tween-20. The binding affinities of peptides 1 and 2, their TPP analogs 3–5, as well as the control compounds for the E. coli ribosome were analyzed via a competition-binding assay using fluorescently labeled BODIPY-Bac(1–10) or BODIPY-ERY, as described before in [38, 54]. The fluorescent compound (16 nM) was mixed with ribosomes (84 nM for BODIPY-Bac(1–10) and 46 nM for BODIPY-ERY) in the buffer. Solutions of the tested compounds were added to the obtained complexes to final concentrations ranging from 0.01 to 100 µM. The mixtures were incubated for 2 h at 26 °C, and then the values of fluorescence anisotropy were measured with a VICTOR X5 Multilabel Plate Reader (PerkinElmer, Waltham, MA, USA) using a 384-well plate. The excitation wavelength was 485 nm, and the emission wavelength was 535 nm. From the data obtained, apparent dissociation constants were calculated.
# [11] = tested on: bacterial translation (E. coli S30 extract); assay: In vitro translation inhibition of firefly luciferase mRNA, E. coli S30 extract; format: biochemical; settings: 30 µM
# Description: Briefly, in vitro-transcribed firefly luciferase mRNA (fluc) was translated using the E. coli S30 Extract System for Linear Templates (Promega, Madison, WI, USA). Reaction mixtures (with a 5 μL total volume) supplemented with 0.1 mM of a mixture of all canonical amino acids, 4 U of RiboLock RNase Inhibitor (Thermo Fisher Scientific, Waltham, MA, USA), and 0.1 mM of D-luciferin (Sigma-Aldrich, Burlington, MA, USA) were pre-incubated at RT for 5 min after the addition of the tested compounds at a final concentration of 30 µM. Then, 50 ng of the mRNA was added to each reaction tube, and the mixtures were immediately subjected to continuous chemiluminescence measurements using the VICTOR X5 Multilabel Plate Reader (PerkinElmer, Waltham, MA, USA) at 37 °C for 30 min. The maximal rates of the firefly luciferase (Fluc) accumulation were calculated using the OriginPro 7.5 software. The values were normalized to a positive control (0.3% DMSO, assigned a value of 100%).
# [12] = tested on: B. subtilis; assay: Membrane potential with fluorescent probe diS-C3-(5); format: cell-based; settings: diS-C3-(5) fluorescence
# Description: The membrane potential of B. subtilis was assessed by measuring the fluorescence emitted by the potential-dependent probe, diS-C3-(5). Bacterial cells derived from the overnight culture of B. subtilis were inoculated into a fresh LB medium and allowed to grow for 24 h until reaching an optical density of 0.8 at 600 nm. Subsequently, the bacteria were subjected to a 20-fold dilution in a buffer comprising 100 mM of KCl and 10 mM of Tris, adjusted to a pH of 7.4. Fluorescence measurements were conducted at 670 nm (with excitation at 630 nm) using a Fluorat-02-Panorama fluorimeter manufactured by Lumex Instruments in St. Petersburg, Russia.
# [13] = B. subtilis-CFR (chloramphenicol-resistant), 37 °C
# [14] = HEK293T, MTT, read-out: IC50 (50% inhibition of viability of cells)
# [15] = MCF7, 72 h, MTT, read-out: IC50 (50% inhibition of viability of cells)
# [16] = VA13, 72 h, MTT, read-out: IC50 (50% inhibition of viability of cells)
# [17] = read-out: IC50 (50% inhibition of viability of cells), A549, 72 h, MTT
compound,measurement,setting,value
"CCCC[P+](c1ccccc1)(c1ccccc1)c1ccccc1 [C4-TPP, reference compound]",MIC,"[1]; B. subtilis 168, 37 °C, 18 h",>100 µM
same,MIC,[2]; [13],>100 µM
same,MIC,[3],>100 µM
same,MIC,"[4]; E. coli ∆sbmA, 37 °C",>100 µM
same,IC50,[5]; [14],2900 ± 500 nM
same,IC50,[6]; [15],8000 ± 2000 nM
same,IC50,[7]; [16],11000 ± 2000 nM
same,IC50,[8]; [17],6200 ± 900 nM
"CCCCCCCCCC[P+](c1ccccc1)(c1ccccc1)c1ccccc1 [C10-TPP, reference compound]",inhibitory effect on growth of bacterial cells,[9],caused a large growth inhibition zone
same,reporter induction (Katushka2S red pseudocolor = protein synthesis inhibition),[9],did not induce the reporters
same,MIC,"[1]; B. subtilis 168, 37 °C, 18 h",1.6 µM
same,MIC,[2]; [13],0.8 µM
same,MIC,[3],50 µM
same,MIC,"[4]; E. coli ∆sbmA, 37 °C",50 µM
same,"comparison of MIC values, E. coli ΔsbmA versus wild type",[4],the same
same,IC50,[5]; [14],< 160 nM
same,IC50,[6]; [15],250 ± 70 nM
same,IC50,[7]; [16],< 160 nM
same,IC50,[8]; [17],< 160 nM
"CC[C@H](C)[C@H](NC(=O)[C@H](CCCNC(=N)N)NC(=O)[C@H](CCCNC(=N)N)NC(=O)CCCCCCCCCC[P+](c1ccccc1)(c1ccccc1)c1ccccc1)C(=O)N[C@@H](CCCNC(=N)N)C(=O)N1CCC[C@H]1C(=O)N[C@@H](CCCNC(=N)N)C(=O)N1CCC[C@H]1C(=O)N1CCC[C@H]1C(=O)N[C@@H](Cc1ccc(O)cc1)C(=O)N[C@@H](CC(C)C)C(=O)O [Compound 5, TPP-C10-Bac(1–10, R/Y)] (X3-RRIRPRPPYL-OH)",Kd,[10],160 ± 20 nM
same,inhibition of bacterial translation of firefly luciferase (Fluc) mRNA,[11],weakly inhibited
same,inhibitory effect on growth of bacterial cells,[9],demonstrated an inhibitory effect on the growth of bacterial cells
same,MIC,"[1]; B. subtilis 168, 37 °C, 18 h",12.5 µM
same,MIC,[2]; CFR,12.5 µM
same,MIC,[3],5.3 µM
same,MIC,"[4]; E. coli ∆sbmA, 37 °C",5.3 µM
same,"comparison of MIC values, E. coli ΔsbmA versus wild type",[4],the same
same,effect on membrane potential of B. subtilis,[12]; 2.5 µM,"decrease in the membrane potential, to a somewhat lesser extent"
same,IC50,[5],36000 ± 4000 nM
same,IC50,[6]; 72 h,> 20000 nM
same,IC50,[7]; 72 h,> 50000 nM
same,IC50,[8]; 72 h,> 50000 nM
"COc1cccc2c1C(=O)c1c(O)c3c(c(O)c1C2=O)C[C@@](O)(C(=O)CO)C[C@@H]3O[C@H]1C[C@H](N)[C@H](O)[C@H](C)O1 [Doxorubicin, reference compound]",IC50,"[5]; Homo sapiens, HEK-293T, HEK293T, MTT, read-out: IC50 (50% inhibition of viability of cells)",< 1600 nM
same,IC50,"[6]; Homo sapiens, MCF7, 72 h, MTT, read-out: IC50 (50% inhibition of viability of cells)",1700 ± 200 nM
same,IC50,"[7]; Homo sapiens, VA-13, VA13, 72 h, MTT, read-out: IC50 (50% inhibition of viability of cells)",1200 ± 300 nM
same,IC50,"[8]; Homo sapiens, A549, 72 h, read-out: IC50 (50% inhibition of viability of cells)",1200 ± 100 nM
"CC[C@H]1OC(=O)[C@H](C)[C@@H](O[C@H]2C[C@@](C)(OC)[C@@H](O)[C@H](C)O2)[C@H](C)[C@@H](O[C@@H]2O[C@H](C)C[C@H](N(C)C)[C@H]2O)[C@](C)(O)C[C@@H](C)C(=O)[C@H](C)[C@@H](O)[C@]1(C)O [ERY, erythromycin, reference compound]",reporter induction (Katushka2S red pseudocolor = protein synthesis inhibition),[9],red pseudocolor reporter induction was observed
same,MIC,"[1]; Bacillus subtilis, B. subtilis 168, 37 °C, 18 h",< 0.1 µM
same,MIC,"[2]; Bacillus subtilis, B. subtilis-CFR (chloramphenicol-resistant), 37 °C",< 0.1 µM
same,MIC,[3]; Escherichia coli,170 µM
same,MIC,[4]; Escherichia coli,170 µM
"H-RRIRPRPPRL-OH [Compound 1, Bac(1–10)]",Kd,[10],1400 ± 100 nM
same,inhibition of bacterial translation of firefly luciferase (Fluc) mRNA,[11],practically did not inhibit
same,inhibitory effect on growth of bacterial cells,[9],did not exhibit any antibacterial activity
same,MIC,"[1]; 168, 18 h",>50 µM
same,MIC,[2]; CFR,>50 µM
same,effect on membrane potential of B. subtilis,[12]; 50 µM,did not affect the membrane potential
"H-RRIRPRPPYL-OH [Compound 2, Bac(1–10, R/Y)]",Kd,[10],1000 ± 100 nM
same,inhibition of bacterial translation of firefly luciferase (Fluc) mRNA,[11],practically did not inhibit
same,inhibitory effect on growth of bacterial cells,[9],did not exhibit any antibacterial activity
same,MIC,[3],>100 µM
same,MIC,"[4]; E. coli ∆sbmA, 37 °C",>100 µM
same,effect on membrane potential of B. subtilis,[12]; 50 µM,did not affect the membrane potential
same,IC50,[5],> 50000 nM
same,IC50,[6]; 72 h,> 20000 nM
same,IC50,[7]; 72 h,> 50000 nM
same,IC50,[8]; 72 h,> 50000 nM
